Test results as given in PubChem BioAssay AID2060618 (Molecular Pharmacology Branch, DTP, NCI, 2025).
Several values for one entry are separate records, joined by “and”; a condition that tells them apart may be missing. Equal entries are not always repeated.

System: 454973-116-R2-J3-PDC spheroids, percent test/control viability
Assay: Anticancer human tumor 454973-116-R2-J3-PDC patient-derived pancreatic carcinoma cell line growth inhibition [CLK]
Conditions: spheroids with HUVEC and MSC; for viability, T/C: stronger effect = lower value
How it was run: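 Multi-cell-type spheroids combined patient-derived tumor cells with HUVEC endothelial cells and human mesenchymal stem cells. Paired agents were dosed in half-log steps down from about clinical Cmax, or from 10 microM where Cmax was unknown.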

[1] = curve of first compound, second compound 0.0316 µM
[2] = curve of first compound, second compound 0.1 µM
[3] = curve of first compound, second compound 0.316 µM
[4] = curve of first compound, second compound 1 µM
[5] = curve of first compound, second compound 3.16 µM
[6] = curve of first compound, second compound 10 µM
[7] = second compound 0.0316 µM, first compound 0.0316 µM
[8] = second compound 0.0316 µM, first compound 0.1 µM
[9] = second compound 0.0316 µM, first compound 0.316 µM
[10] = second compound 0.0316 µM, first compound 1 µM
[11] = second compound 0.0316 µM, first compound 3.16 µM
[12] = second compound 0.0316 µM, first compound 10 µM
[13] = second compound 0.1 µM, first compound 0.0316 µM
[14] = second compound 0.1 µM, first compound 0.1 µM
[15] = second compound 0.1 µM, first compound 0.316 µM
[16] = second compound 0.1 µM, first compound 1 µM
[17] = second compound 0.1 µM, first compound 3.16 µM
[18] = second compound 0.1 µM, first compound 10 µM
[19] = second compound 0.316 µM, first compound 0.0316 µM
[20] = second compound 0.316 µM, first compound 0.1 µM
[21] = second compound 0.316 µM, first compound 0.316 µM
[22] = second compound 0.316 µM, first compound 1 µM
[23] = second compound 0.316 µM, first compound 3.16 µM
[24] = second compound 0.316 µM, first compound 10 µM
[25] = second compound 1 µM, first compound 0.0316 µM
[26] = second compound 1 µM, first compound 0.1 µM
[27] = second compound 1 µM, first compound 0.316 µM
[28] = second compound 1 µM, first compound 1 µM
[29] = second compound 1 µM, first compound 3.16 µM
[30] = second compound 1 µM, first compound 10 µM
[31] = second compound 3.16 µM, first compound 0.0316 µM
[32] = second compound 3.16 µM, first compound 0.1 µM
[33] = second compound 3.16 µM, first compound 0.316 µM
[34] = second compound 3.16 µM, first compound 1 µM
[35] = second compound 3.16 µM, first compound 3.16 µM
[36] = second compound 3.16 µM, first compound 10 µM
[37] = second compound 10 µM, first compound 0.0316 µM
[38] = second compound 10 µM, first compound 0.1 µM
[39] = second compound 10 µM, first compound 0.316 µM
[40] = second compound 10 µM, first compound 1 µM
[41] = second compound 10 µM, first compound 3.16 µM
[42] = second compound 10 µM, first compound 10 µM
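Also: spheroids exposed to compounds for 7 days before readout.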

SMILES: COc1c(OCCCN2CCOCC2)ccc2c3n(c(=NC(=O)c4cnc(N)nc4)nc12)CCN3
- viability, T/C (compound 0.00316 µM): 97.1% and 109%
- viability, T/C (compound 0.01 µM): 98.4% and 90.9%
- viability, T/C (compound 0.0316 µM): 99.2% and 75.2%
- viability, T/C (compound 0.1 µM): 44% and 39%
- viability, T/C (compound 0.316 µM): 23.6% and 20.3%
- viability, T/C (compound 1 µM): 8.06% and 7.21%
- IC50 (curve of compound): 88.4 nM and 72.4 nM

SMILES: CC1(C)CCC(CN2CCN(c3ccc(C(=O)NS(=O)(=O)c4ccc(NCC5CCOCC5)c([N+](=O)[O-])c4)c(Oc4cnc5[nH]ccc5c4)c3)CC2)=C(c2ccc(Cl)cc2)C1 + CNC(=O)c1ccc(Nc2nc(OC3CCCC3)c3c(-c4ccc5nc(C)oc5c4)c[nH]c3n2)c(OC)c1
- IC50 [1]: 6830 nM
- IC50 [2]: 6950 nM
- IC50 [3]: < 31.6 nM
- IC50 [4]: < 31.6 nM
- IC50 [5]: < 31.6 nM
- IC50 [6]: < 31.6 nM
- viability, T/C [7]: 95.9%
- viability, T/C [8]: 94.7%
- viability, T/C [9]: 103%
- viability, T/C [10]: 102%
- viability, T/C [11]: 112%
- viability, T/C [12]: 24.5%
- viability, T/C [13]: 96.3%
- viability, T/C [14]: 98.8%
- viability, T/C [15]: 93.9%
- viability, T/C [16]: 94%
- viability, T/C [17]: 102%
- viability, T/C [18]: 28.1%
- viability, T/C [19]: 37.5%
- viability, T/C [20]: 38.5%
- viability, T/C [21]: 37.6%
- viability, T/C [22]: 40.3%
- viability, T/C [23]: 32.5%
- viability, T/C [24]: 21.1%
- viability, T/C [25]: 27.2%
- viability, T/C [26]: 26.2%
- viability, T/C [27]: 28.3%
- viability, T/C [28]: 28.4%
- viability, T/C [29]: 28.3%
- viability, T/C [30]: 23.4%
- viability, T/C [31]: 29.2%
- viability, T/C [32]: 25.2%
- viability, T/C [33]: 26.9%
- viability, T/C [34]: 23.9%
- viability, T/C [35]: 27.6%
- viability, T/C [36]: 22.3%
- viability, T/C [37]: 26.6%
- viability, T/C [38]: 26.6%
- viability, T/C [39]: 24.4%
- viability, T/C [40]: 21.8%
- viability, T/C [41]: 26.1%
- viability, T/C [42]: 21.6%

SMILES: O=c1[nH]cc(F)c(=O)[nH]1 + CN1CCN(c2cc(C(=O)Nc3cc4cc(-c5cnn(C)c5)ccc4cn3)ccn2)CC1
- IC50 [1]: 1940 nM
- IC50 [2]: 1330 nM
- IC50 [3]: < 31.6 nM
- IC50 [4]: < 31.6 nM
- IC50 [5]: < 31.6 nM
- IC50 [6]: < 31.6 nM
- viability, T/C [7]: 93%
- viability, T/C [8]: 102%
- viability, T/C [9]: 95.2%
- viability, T/C [10]: 71.3%
- viability, T/C [11]: 30.6%
- viability, T/C [12]: 37.9%
- viability, T/C [13]: 73%
- viability, T/C [14]: 86.7%
- viability, T/C [15]: 73.5%
- viability, T/C [16]: 57.1%
- viability, T/C [17]: 27.7%
- viability, T/C [18]: 30.2%
- viability, T/C [19]: 2.26%
- viability, T/C [20]: 2.2%
- viability, T/C [21]: 3.74%
- viability, T/C [22]: 2.11%
- viability, T/C [23]: 3.66%
- viability, T/C [24]: 2.07%
- viability, T/C [25]: 0.1%
- viability, T/C [26]: 0.11%
- viability, T/C [27]: 0.74%
- viability, T/C [28]: 0.06%
- viability, T/C [29]: 0.05%
- viability, T/C [30]: 0.08%
- viability, T/C [31]: 0.14%
- viability, T/C [32]: 0.39%
- viability, T/C [33]: 0.44%
- viability, T/C [34]: 0.1%
- viability, T/C [35]: 0.14%
- viability, T/C [36]: 0.59%
- viability, T/C [37]: 0.05%
- viability, T/C [38]: 0.14%
- viability, T/C [39]: 0.14%
- viability, T/C [40]: 0.17%
- viability, T/C [41]: 0.16%
- viability, T/C [42]: 0.17%

SMILES: CC(=O)O[C@H]1C(=O)[C@@]2(C)[C@H]([C@H](OC(=O)c3ccccc3)[C@]3(O)C[C@H](OC(=O)[C@H](O)[C@@H](NC(=O)c4ccccc4)c4ccccc4)C(C)=C1C3(C)C)[C@]1(OC(C)=O)CO[C@@H]1C[C@@H]2O
- viability, T/C (compound 0.0316 µM): 5.98% and 7.51%
- viability, T/C (compound 0.1 µM): 6.42% and 5.84%
- viability, T/C (compound 0.316 µM): 4.95% and 6.85%
- viability, T/C (compound 1 µM): 5.57% and 6.35%
- viability, T/C (compound 3.16 µM): 7.38% and 11.4%
- viability, T/C (compound 10 µM): 16% and 15.4%
- IC50 (curve of compound): < 31.6 nM

SMILES: O=c1[nH]cc(F)c(=O)[nH]1 + CNC(=O)c1ccc(Nc2nc(OC3CCCC3)c3c(-c4ccc5nc(C)oc5c4)c[nH]c3n2)c(OC)c1
- IC50 [1]: 1650 nM
- IC50 [2]: 2020 nM
- IC50 [3]: 41.2 nM
- IC50 [4]: < 31.6 nM
- IC50 [5]: < 31.6 nM
- IC50 [6]: < 31.6 nM
- viability, T/C [7]: 94.7%
- viability, T/C [8]: 107%
- viability, T/C [9]: 88.5%
- viability, T/C [10]: 61.7%
- viability, T/C [11]: 32.6%
- viability, T/C [12]: 38.4%
- viability, T/C [13]: 100%
- viability, T/C [14]: 113%
- viability, T/C [15]: 106%
- viability, T/C [16]: 75.8%
- viability, T/C [17]: 33.6%
- viability, T/C [18]: 32.1%
- viability, T/C [19]: 49.4%
- viability, T/C [20]: 49.3%
- viability, T/C [21]: 42.5%
- viability, T/C [22]: 37.5%
- viability, T/C [23]: 28.4%
- viability, T/C [24]: 25.3%
- viability, T/C [25]: 32.9%
- viability, T/C [26]: 28.1%
- viability, T/C [27]: 21.6%
- viability, T/C [28]: 20.6%
- viability, T/C [29]: 16.2%
- viability, T/C [30]: 19.6%
- viability, T/C [31]: 29.8%
- viability, T/C [32]: 33%
- viability, T/C [33]: 24.5%
- viability, T/C [34]: 19.1%
- viability, T/C [35]: 16.4%
- viability, T/C [36]: 18.9%
- viability, T/C [37]: 25.1%
- viability, T/C [38]: 25.3%
- viability, T/C [39]: 19.7%
- viability, T/C [40]: 19.3%
- viability, T/C [41]: 17.2%
- viability, T/C [42]: 14.2%

SMILES: CCN1CCN(Cc2ccc(Nc3ncc(F)c(-c4cc(F)c5nc(C)n(C(C)C)c5c4)n3)nc2)CC1
- viability, T/C (compound 0.00316 µM): 95.9% and 106%
- viability, T/C (compound 0.01 µM): 99.1% and 87.2%
- viability, T/C (compound 0.0316 µM): 89.6% and 75.1%
- viability, T/C (compound 0.1 µM): 75.3% and 70.8%
- viability, T/C (compound 0.316 µM): 60.3% and 65%
- viability, T/C (compound 1 µM): 62.7% and 64.3%
- IC50 (curve of compound): > 1000 nM

SMILES: CC(Nc1ccc2c(c1)OCCn1cc(N3C(=O)OCC3C(F)F)nc1-2)C(N)=O (stereo unspecified)
- viability, T/C (compound 0.0316 µM): 98.3% and 101%
- viability, T/C (compound 0.1 µM): 95.5% and 92.3%
- viability, T/C (compound 0.316 µM): 99.5% and 84%
- viability, T/C (compound 1 µM): 84.7% and 86.1%
- viability, T/C (compound 3.16 µM): 78.1% and 71%
- viability, T/C (compound 10 µM): 54.1% and 45%
- IC50 (curve of compound): > 10000 nM and 8310 nM

SMILES: CC(CO)NC(=O)c1cc(-c2ccc(Cl)cc2)nn(-c2cnn(C)c2)c1=O (stereo unspecified) + CN1CCN(c2cc(C(=O)Nc3cc4cc(-c5cnn(C)c5)ccc4cn3)ccn2)CC1
- IC50 [1]: > 10000 nM
- IC50 [2]: > 10000 nM
- IC50 [3]: < 31.6 nM
- IC50 [4]: < 31.6 nM
- IC50 [5]: < 31.6 nM
- IC50 [6]: < 31.6 nM
- viability, T/C [7]: 97.5%
- viability, T/C [8]: 97.8%
- viability, T/C [9]: 95.6%
- viability, T/C [10]: 105%
- viability, T/C [11]: 96.5%
- viability, T/C [12]: 68.4%
- viability, T/C [13]: 76.9%
- viability, T/C [14]: 88.5%
- viability, T/C [15]: 80.6%
- viability, T/C [16]: 86%
- viability, T/C [17]: 82%
- viability, T/C [18]: 54.2%
- viability, T/C [19]: 1.94%
- viability, T/C [20]: 2.45%
- viability, T/C [21]: 2.27%
- viability, T/C [22]: 2.92%
- viability, T/C [23]: 2.59%
- viability, T/C [24]: 4.2%
- viability, T/C [25]: 0.11%
- viability, T/C [26]: 0.93%
- viability, T/C [27]: 2.47%
- viability, T/C [28]: 0.11%
- viability, T/C [29]: 0.09%
- viability, T/C [30]: 0.42%
- viability, T/C [31]: 0.17%
- viability, T/C [32]: 0.17%
- viability, T/C [33]: 0.24%
- viability, T/C [34]: 0.18%
- viability, T/C [35]: 0.16%
- viability, T/C [36]: 0.13%
- viability, T/C [37]: 1.96%
- viability, T/C [38]: 0.22%
- viability, T/C [39]: 0.37%
- viability, T/C [40]: 2.01%
- viability, T/C [41]: 0.24%
- viability, T/C [42]: 0.36%
